# Results as given in publication PMC5728534 (PLoS ONE, 2017).
# Positions count from the first letter of the chain named. Entries after “also recorded” stand apart in the source; their conditions may differ. Where two headings read alike, the source gives them in different places.
# Columns and labels:
# [1] = design: method as in ref 5 = [5]; 5 Inc. G. PrZANTAC ® [product monograph]. Canada: GlaxoSmithKline Inc.; 2015 [updated 15.01.2015; cited 2016 21.10.2016].; conditions: long-term toxicity tests in animals; cited from earlier work
# [2] = dogs; cited from earlier work
# [3] = target: T1, OCT1*1B (Homo sapiens, UniProt O15245, L160F); conditions: for Vmax (±SEM): OCT1*1B reference allele, 10-600 μM ranitidine, control-cell uptake subtracted
# T1 sequence (O15245 1-554 L160F): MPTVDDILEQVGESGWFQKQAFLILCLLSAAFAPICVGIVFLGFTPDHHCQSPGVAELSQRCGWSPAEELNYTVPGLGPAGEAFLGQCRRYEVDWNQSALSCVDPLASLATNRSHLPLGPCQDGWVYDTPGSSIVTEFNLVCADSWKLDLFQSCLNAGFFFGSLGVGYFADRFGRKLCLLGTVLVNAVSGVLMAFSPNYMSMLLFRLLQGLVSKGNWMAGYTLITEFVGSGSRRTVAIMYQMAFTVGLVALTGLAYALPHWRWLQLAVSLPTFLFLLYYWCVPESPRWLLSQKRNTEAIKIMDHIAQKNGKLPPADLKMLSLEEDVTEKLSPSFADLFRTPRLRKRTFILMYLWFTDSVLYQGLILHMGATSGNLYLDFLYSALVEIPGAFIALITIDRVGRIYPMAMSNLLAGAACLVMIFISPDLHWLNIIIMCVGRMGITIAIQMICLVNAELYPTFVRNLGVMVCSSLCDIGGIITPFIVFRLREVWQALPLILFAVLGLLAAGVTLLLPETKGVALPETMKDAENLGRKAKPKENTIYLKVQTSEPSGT
# From the text: (§1) HEK293 or CHO cells overexpressing the human OCT1 alleles *1A (characterized by the amino acid substitution Met408Val), *1B, *1C (Phe160Leu), *1D (Pro341Leu/Met408Val), *2 (Met420del), *3 (Arg61Cys), *4 (Gly401Ser), *5 (Gly465Arg/Met420del), *6 (Cys88Arg/Met420del), *7 (Ser14Phe), *8A (Arg488Met), *8B (Arg488Met/Met408Val), *9 (Pro117Leu), *10 (Ser189Leu), *11 (Ile449Thr), *12 (Ser29Leu), or *13 (Thr245Met), the human OCT2 reference and variant alleles (Ala270Ser), human OCT3, and the control cells (transfected with the empty pcDNA5 vector) were generated by targeted chromosomal integration using the Flp-In™ System (Life Technologies, Darmstadt, Germany).
# Six hundred thousand HEK293 or CHO cells were plated per well in 12-well plates (pre-coated with poly-D-lysine) and were grown for 48 hours to reach confluence. Cells were kept at 37°C and 5% CO2 in DMEM (HEK293) or RPMI (CHO), supplemented with 10% FCS, 100 U/ml penicillin, and 100 μg/ml streptomycin. Uptake experiments were performed at pH 7.4 using HBSS supplemented with 10 mM HEPES buffer (herein referred to as HBSS+). Cells were washed once with 1 ml pre-warmed HBSS+ buffer (37°C). […] Cells were washed twice with 2 ml ice-cold HBSS+ and lysed in 500 μl lysis buffer.
# (§2) For all transport measurements, the intracellular amount of substrate was normalized to the total amount of protein of the sample as measured using the bicinchoninic acid assay [49].
# For quantification of intracellular substrates, the cell debris were removed by centrifugation at 17,000 x g for 10 min. Four-hundred μl of the supernatant was evaporated to dryness under nitrogen flow at 40°C. The residue was reconstituted in 200 μl 0.1% formic acid and 10 μl were injected into the LC-MS/MS. For the LC-MS/MS analysis an API 4000™ system tandem mass spectrometer (AB SCIEX, Darmstadt, Germany) was used. Samples were separated using a Brownlee SPP RP-Amide Column (4.6x100 mm, 2.7 μm; PerkinElmer), with a SecurityGuard C18, 4x2 mm pre-column (Phenomenex, Aschaffenburg, Germany).
# Nonlinear regression to the Michaelis-Menten equation was performed to determine Km and vmax using GraphPad Prism version 6 (GraphPad Software Inc., La Jolla, CA, USA). Nonlinear regression to the Hill equation v = vmin+(vmax-vmin)/1+([I]/IC50)^-Hillslope was performed to determine IC50 using SigmaPlot version 12.0 (Systat Software, San Jose, California, USA).
# [4] = target: T2, OCT1*5 (Gly465Arg/Met420del) (Homo sapiens, UniProt O15245, DEL420-420/G465R/L160F); test: Ranitidine uptake in HEK293 cells overexpressing OCT1*5; assay type: in vitro ADME; conditions: 1 μM and 10 μM ranitidine, 2 min
# T2 construct: expressed in transfected cells; host or cells: HEK293 T-REx (Flp-In)
# T2 sequence (O15245 with tags, fused parts or gaps L160F/DEL420-420/G465R): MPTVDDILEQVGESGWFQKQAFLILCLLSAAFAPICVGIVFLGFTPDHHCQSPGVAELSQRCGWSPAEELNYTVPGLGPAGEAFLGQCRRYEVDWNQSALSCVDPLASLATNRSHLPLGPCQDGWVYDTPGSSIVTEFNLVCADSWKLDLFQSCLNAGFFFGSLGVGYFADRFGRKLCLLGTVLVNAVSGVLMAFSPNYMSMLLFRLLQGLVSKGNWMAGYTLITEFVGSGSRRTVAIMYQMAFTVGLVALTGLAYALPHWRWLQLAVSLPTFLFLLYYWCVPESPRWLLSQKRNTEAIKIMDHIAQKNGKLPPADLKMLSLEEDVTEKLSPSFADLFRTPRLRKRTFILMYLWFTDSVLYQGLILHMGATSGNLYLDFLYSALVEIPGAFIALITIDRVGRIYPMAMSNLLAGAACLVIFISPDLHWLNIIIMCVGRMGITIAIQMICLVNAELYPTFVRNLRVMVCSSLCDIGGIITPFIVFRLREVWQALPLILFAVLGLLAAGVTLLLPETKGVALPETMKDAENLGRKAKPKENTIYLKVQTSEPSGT
# From the text: as §1
# (§3) Six hundred thousand HEK293 or CHO cells were plated per well in 12-well plates (pre-coated with poly-D-lysine) and were grown for 48 hours to reach confluence. Cells were kept at 37°C and 5% CO2 in DMEM (HEK293) or RPMI (CHO), supplemented with 10% FCS, 100 U/ml penicillin, and 100 μg/ml streptomycin. Uptake experiments were performed at pH 7.4 using HBSS supplemented with 10 mM HEPES buffer (herein referred to as HBSS+). […]
# as §2
# (§4) For quantification of intracellular substrates, the cell debris were removed by centrifugation at 17,000 x g for 10 min. […]
# [5] = target: T3, OCT1*13 (Thr245Met) (Homo sapiens, UniProt O15245, L160F/T245M); test: Ranitidine uptake in HEK293 cells overexpressing OCT1*13; assay type: in vitro ADME; conditions: 1 μM and 10 μM ranitidine, 2 min
# T3 construct: expressed in transfected cells; host or cells: HEK293 T-REx (Flp-In)
# T3 sequence (O15245 1-554 L160F/T245M): T1 sequence (O15245 1-554 L160F) with T245M
# From the text: as §1, §3, §2, §4
# [6] = target: T4, OCT1*2 (Met420del) (Homo sapiens, UniProt O15245, DEL420-420/L160F)
# T4 sequence (O15245 with tags, fused parts or gaps L160F/DEL420-420): T2 sequence (O15245 with tags, fused parts or gaps L160F/DEL420-420/G465R) with R464G
# From the text: as §1, §3, §2, §4
smiles,measurement,setting,value
"CNC(=C[N+](=O)[O-])NCCSCc1ccc(CN(C)C)o1 [ranitidine, Ranitidine]",plasma concentrations exceeding the human maximal plasma concentration without significant adverse reactions,[1],50 fold
same,reduction of basolateral uptake by co-administration of probenecid,[2],four-fold
same,"ranitidine uptake, OCT1-overexpressing compared to control cells","[3]; 1 μM ranitidine, 2 min, HEK293",7.8 fold
same,"intracellular concentration of ranitidine, OCT1-overexpressing cells compared to control cells","[3]; 1 μM ranitidine, after 1 min of incubation, HEK293",8.5 fold
same,Vmax (±SEM),"[3]; HEK293, 2 min",1125 ± 86.1 pmol x min^-1 x mg protein^-1
same,Vmax (±SEM),"[3]; HEK293, 2 min, listed as Ranitidine",1125 pmol x min^-1 x mg protein^-1
same,vmax,[3]; wild-type OCT1 (abstract),1125 pmol/min/mg protein
same,ranitidine transport activity,[4],completely lacked ranitidine uptake; also recorded: complete lack of ranitidine transport activity
same,ranitidine transport activity,[5],completely lacked ranitidine uptake; also recorded: complete lack of ranitidine transport activity
same,decrease of vmax compared to the reference allele,[6]; OCT1*2,more than 50%
same,Vmax (±SEM),"[6]; OCT1*2 Met420del, HEK293, 10-600 μM ranitidine, 2 min",402.04 (±51.24) pmol x min^-1 x mg protein^-1
